In the supplement of paper PMC10307832:

Key:
Assay in all cases: relative viability (nuclei count vs DMSO), 5 days (fraction); higher = more cells survive
BI-D1870 + Luminespib = compound: CC(C)CCN1c2nc(Nc3cc(F)c(O)c(F)c3)ncc2N(C)C(=O)C1C [BI-D1870] + CCNC(=O)c1noc(-c2cc(C(C)C)c(O)cc2O)c1-c1ccc(CN2CCOCC2)cc1 [Luminespib] (partner 0.01 µM)
Outline: (§1)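 Lung cancer cell lines in 1536-well plates were dosed by pin tool the day after seeding, either with one drug alone or with a fixed anchor-drug dose plus five library-drug doses (not always all listed) in √10 steps. After 5 days, cells were fixed and their nuclei stained in one step (final 0.05% Triton X-100, 1% formaldehyde, 1 ug/ml Hoechst), then counted on 4× images. Relative viability is the nuclei count in treated wells divided by that in vehicle wells. Values are medians of duplicate plates.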

Zebularine + Palbociclib = compound: O=c1ncccn1[C@@H]1O[C@H](CO)[C@@H](O)[C@H]1O [Zebularine] + CC(=O)c1c(C)c2cnc(Nc3ccc(N4CCNCC4)cn3)nc2n(C2CCCC2)c1=O [Palbociclib] (partner 0.5 µM)
Outline: as §1

BI-D1870 + Palbociclib = compound: CC(C)CCN1c2nc(Nc3cc(F)c(O)c(F)c3)ncc2N(C)C(=O)C1C [BI-D1870] + CC(=O)c1c(C)c2cnc(Nc3ccc(N4CCNCC4)cn3)nc2n(C2CCCC2)c1=O [Palbociclib] (partner 0.5 µM)
Outline: as §1

BI-D1870 + AZD7762 = compound: CC(C)CCN1c2nc(Nc3cc(F)c(O)c(F)c3)ncc2N(C)C(=O)C1C [BI-D1870] + NC(=O)Nc1cc(-c2cccc(F)c2)sc1C(=O)N[C@H]1CCCNC1 [AZD7762] (partner 0.2 µM)
Outline: as §1

Cell Line	relative viability (BI-D1870 + Luminespib; first compound 0.04 µM)	relative viability (BI-D1870 + Luminespib; first compound 0.1265 µM)	relative viability (BI-D1870 + Luminespib; first compound 0.4 µM)	relative viability (BI-D1870 + Luminespib; first compound 1.265 µM)	relative viability (BI-D1870 + Luminespib; first compound 4 µM)	relative viability (Zebularine + Palbociclib; first compound 1 µM)	relative viability (Zebularine + Palbociclib; first compound 3.162 µM)	relative viability (Zebularine + Palbociclib; first compound 10 µM)	relative viability (Zebularine + Palbociclib; first compound 31.62 µM)	relative viability (Zebularine + Palbociclib; first compound 100 µM)	relative viability (BI-D1870 + Palbociclib; first compound 0.04 µM)	relative viability (BI-D1870 + Palbociclib; first compound 0.1265 µM)	relative viability (BI-D1870 + Palbociclib; first compound 0.4 µM)	relative viability (BI-D1870 + Palbociclib; first compound 1.265 µM)	relative viability (BI-D1870 + Palbociclib; first compound 4 µM)	relative viability (BI-D1870 + AZD7762; first compound 0.04 µM)	relative viability (BI-D1870 + AZD7762; first compound 0.1265 µM)	relative viability (BI-D1870 + AZD7762; first compound 0.4 µM)	relative viability (BI-D1870 + AZD7762; first compound 1.265 µM)	relative viability (BI-D1870 + AZD7762; first compound 4 µM)
COR-L 105	0.824	0.828	0.631	0.854	0.666	0.515	0.373	0.416	0.406	0.43	0.412	0.395	0.407	0.41	0.425	–	–	–	–	–
HCC-366	–	–	–	–	–	0.367	0.387	0.246	0.23	0.108	0.422	0.404	0.329	0.445	0.376	0.389	0.273	0.202	0.662	0.477
NCI-H1648	–	–	–	–	–	0.316	0.226	0.301	0.25	0.24	0.285	0.273	–	0.308	0.259	0.67	0.677	–	0.646	0.57
NCI-H596	1.16	0.985	1.27	0.786	0.915	–	–	–	–	–	–	–	–	–	–	1.23	0.9	1.04	1.16	0.933
NCI-H2228	0.142	0.131	0.146	0.157	0.127	0.861	0.637	–	0.552	0.216	0.97	0.771	0.688	0.713	0.627	–	–	–	–	–
SK-MES-1	0.904	0.649	0.66	0.535	0.251	0.346	0.359	0.341	0.328	0.272	0.342	0.318	0.314	0.285	0.266	–	–	–	–	–
SW 1573	0.219	0.172	0.297	0.191	0.143	0.451	0.435	–	0.391	0.38	0.435	0.347	0.332	0.25	0.17	–	–	–	–	–
NCI-H661	0.961	0.935	0.988	1.01	0.877	0.406	0.4	0.425	0.435	0.438	0.459	0.392	0.419	0.384	0.358	–	–	–	–	–
NCI-H520	0.207	0.209	0.243	0.22	0.194	0.213	0.217	0.202	0.201	0.175	0.253	0.218	0.217	0.224	0.13	–	–	–	–	–
NCI-H2023	1.03	0.48	0.685	0.795	0.385	0.361	0.375	0.235	0.322	0.245	0.424	0.279	0.284	0.3	0.207	–	–	–	–	–
NCI-H2009	1.1	1.01	0.93	0.999	0.59	0.249	0.229	0.234	0.198	0.197	0.22	0.169	0.229	0.179	0.148	–	–	–	–	–
